Read-outs that look alike come from different tables or passages of the source. Marks after values point to notes of the source that are not given here.
Assays:
[1] = test system: patients with advanced solid tumors; assay: Safety and tolerability: adverse events graded by CTCAE version 3.0; format: in vivo, human
[2] = test system: patients with advanced solid tumors; conditions: human, in vivo
[3] = Plasma pharmacokinetics, non-compartmental analysis; conditions: 65 mg once daily, Day 21, individual values of 2 patients
[4] = test system: pAkt in epidermal keratinocytes; assay: Pharmacodynamics: immunohistochemistry on skin punch biopsies, pAkt; conditions: pretreatment versus on-therapy (Day 21)
[5] = test system: patients with advanced solid tumors; assay: Phase I dose escalation: dose-limiting toxicities and maximum tolerated dose; conditions: oral once daily, 3-week-on/1-week-off schedule
[6] = test system: p27^KIP1 in epidermal keratinocytes; assay: Pharmacodynamics: immunohistochemistry on skin punch biopsies, p27KIP1; conditions: doses of ≥ 55 mg/day, Day 21
[7] = test system: pMAPK in epidermal keratinocytes; assay: Pharmacodynamics: immunohistochemistry on skin punch biopsies, pMAPK; conditions: pretreatment versus on-therapy (Day 21)
[8] = test system: Ki-67 in epidermal keratinocytes; conditions: doses of ≥ 55 mg/day, Day 21 versus pretreatment
[9] = human, in vivo
advanced solid tumors = assay: Antitumor activity, objective tumor response by RECIST 1.0
clinical = conditions: human, in vivo; for AUC(0-t): AUC0–24,ss; for CL/F: CL/Fss; for Cmax: Cmax,ss; for Vd/F: Vz/Fss

## CN(C)C/C=C/C(=O)Nc1cc2c(Nc3ccc(F)c(Cl)c3)ncnc2cc1O[C@H]1CCOC1 [afatinib]
[1]; 10 mg
  drug-related diarrhea: no drug-related diarrhea was observed
[1]; 10 mg dose cohort
  treatment-related Grade ≥2 AEs: No treatment-related Grade ≥2 AEs were observed
[1]; 20 mg
  drug-related diarrhea: no drug-related diarrhea was observed
[1]; 40 mg
  patients who developed diarrhea: 50%
[1]; 40 mg/day
  Discontinued due to other toxicity, n (%): 1 (12.5) n (%)
[1]; 55 mg
  patients who developed diarrhea: 90%
[1]; 55 mg/day
  Discontinued due to other toxicity, n (%): 4 (20.0) n (%)
[1]; 65 mg/day
  Discontinued due to other toxicity, n (%): 2 (33.3) n (%)
  patients who developed diarrhea: 100%
[1]; Total, all doses
  Discontinued due to other toxicity, n (%): 7 (16.3) n (%)
[1]; all doses
  Grade 4 or 5 AEs: No Grade 4 or 5 AEs were observed
  Grade ≥2 reductions in LVEF: No patients had Grade ≥2 reductions in LVEF
  cases in which diarrhea started within 1–7 days after treatment initiation: 80%
  patients who experienced a serious adverse event (SAE): 34.9%
  patients with drug-related AEs within their first 28-day cycle: 38 patients
  skin events considered to be related to afatinib: 91%
[1]; all doses, entire trial
  drug-related anorexia: 16.3%
  drug-related diarrhea: 65.1%
  drug-related epistaxis: 23.3%
  drug-related fatigue: 20.9%
  drug-related mucosal inflammation: 23.3%
  drug-related nausea: 41.9%
  drug-related rash: 58.1%
  drug-related stomatitis: 25.6%
  drug-related vomiting: 34.9%
[1]; majority of cases
  start of skin events after treatment initiation: 7 to 28 days
[1]; majority of cases (80 %)
  start of diarrhea after afatinib treatment initiation: 1 to 7 days
[1]; three deaths occurred
  deaths during afatinib administration considered to be related to afatinib: None
[2]
  Discontinued due to DLT, n (%): 4 (9.3) n (%)
[2]; 28 day
  DLTs occurring during the first treatment cycle, n (%): 11 (25.6) n (%)
  recommended dose for further studies using this schedule: 40 mg/day
[3]
  t½,ss: 25.8 h
[4]
  change in level of pAkt in paired skin biopsies: no significant difference
[5]
  maximum tolerated dose (MTD): 55 mg/day
[6]
  increase in the total number of p27^KIP1-positive epidermal keratinocytes versus pretreatment: about 16%
[7]
  change in level of pMAPK in normal skin punch biopsies: No significant changes
[8]
  reduction of the number of Ki-67-positive cells in skin biopsies: 31%
[9]
  time to reach steady-state: ≤ 8 days
[9]; 10 mg
  AUC0–24,ss,norm: 6.37 (99.8) [ng·h/mL]/mg
  Cmax,ss,norm: 0.399 (83.7) [ng/mL]/mg
[9]; 20 mg
  AUC0–24,ss,norm: 22.8 (61.8) [ng·h/mL]/mg
  Cmax,ss,norm: 1.57 (94.1) [ng/mL]/mg
[9]; 40 mg
  AUC0–24,ss,norm: 22.7 (69.1) [ng·h/mL]/mg
  Cmax,ss,norm: 1.47 (83.7) [ng/mL]/mg
[9]; 55 mg
  AUC0–24,ss,norm: 24.7 (68.1)^b [ng·h/mL]/mg
  Cmax,ss,norm: 1.65 (67.8)^b [ng/mL]/mg
Advanced solid tumors; 10 mg/day
  Discontinued due to disease progression, n (%): 3 (100.0) n (%)
Advanced solid tumors; 20 mg/day
  Discontinued due to disease progression, n (%): 2 (33.3) n (%)
Advanced solid tumors; 40 mg/day
  Discontinued due to disease progression, n (%): 3 (37.5) n (%)
Advanced solid tumors; 55 mg/day
  Discontinued due to disease progression, n (%): 8 (40.0) n (%)
Advanced solid tumors; 65 mg/day
  Discontinued due to disease progression, n (%): 1 (16.7) n (%)
Advanced solid tumors; RECIST 1.0, all doses
  confirmed objective responses: no confirmed objective responses
Advanced solid tumors; Total, all doses
  Discontinued due to disease progression, n (%): 17 (39.5) n (%)
Advanced solid tumors; one patient with CRC
  decrease in tumor size: 14%
Advanced solid tumors; one patient with NSCLC
  decrease in tumor size: 27%
Advanced solid tumors; one patient with parotid carcinoma, Cycle 4, maintained until Cycle 6
  tumor shrinkage: 13%
Advanced solid tumors; received at least 5 cycles of treatment
  patients with stable disease for at least 16 weeks: 8 patients
clinical; 10 mg
  Tmax: 4 h
  half-life: 35.7 h
  AUC(0-t): 63.7 ng·h/mL
  CL/F: 2620 mL/min
  Cmax: 3.99 ng/mL
  Vd/F: 8080 L
clinical; 20 mg
  half-life: 43.2 h
  AUC(0-t): 455 ng·h/mL
  CL/F: 732 mL/min
  Cmax: 31.3 ng/mL
  Vd/F: 2740 L
clinical; 40 mg
  half-life: 42.8 h
  CL/F: 734 mL/min
  Cmax: 58.9 ng/mL
  Vd/F: 2720 L
clinical; 55 mg
  half-life: 35.1 h
  AUC(0-t): 1360 ng·h/mL
  CL/F: 653 mL/min
  Cmax: 90.8 ng/mL
  Vd/F: 2040 L
clinical; 65 mg
  Tmax: 9 h

Reference: PMC3589659 (Investigational New Drugs, 2012)
